Like-named read-outs stand apart in the source and are kept apart here.
Columns and labels:
normal PBMCs [1] = assay: MTS cytotoxicity assay on PBMCs from normal donors; type: cell-based, human; conditions: for EC50: Homo sapiens, PBMC, read-out: ED50 (μM), PBMC
Experimental: For toxicity studies involving normal blood cells, normal volunteers were enrolled in an IRB-approved protocol for blood collection. PBMCs were isolated from heparin-anticoagulated blood by ficoll-Hypaque density gradient centrifugation.
(§1) 2.5×10^5 CLL cells were incubated in triplicate or quadruplicate in a 96-well tissue culture plate (Costar, Corning, N.Y.) with serial dilutions of LMP-420, fludarabine, and/or recombinant TNF-alpha (R&D Systems, Minneapolis, Minn.) in Hybridoma serum free media (SFM) (GIBCO/Invitrogen, Carlsbad, Calif.) containing 10% heat-inactivated fetal bovine serum (FBS) (Sigma) at 37° C. with 5% CO2. After 72 hours, 20 μl CellTiter 96® AQueous One Solution Cell Proliferation Assay (Promega, Madison, Wis.) MTS (3-(4,5 dimethylthiazol-2-yl)-5-(3-carboxymethoxyphenyl-2-(4-sulfophenyl)-2H-tetrazolium) reagent was added to each well and the absorbance was read at 490 nm on a Thermomax microplate reader (Molecular Devices, Sunnyvale, Calif.). We calculated fractional cytotoxicity as performed previously (Reference 12), comparing absorbance at 490 nm from treated cells to control cells incubated with media alone.
(§2) The concentration effective at killing 50% of CLL cells compared to media alone (ED50) was calculated when 50% fractional cytotoxicity occurred within the range of serial dilutions tested (Reference 12). If the ED50 fell below or above this range, it was set to either the lowest or the highest concentration tested, respectively, for the purposes of statistical analyses and graphical representation.

normal PBMCs [2] = assay: [3H]-thymidine proliferation assay, mitogen-stimulated normal PBMCs; type: cell-based, human; conditions: Homo sapiens, PBMC, 96 h
Experimental: CLL cells (2×10^5 cells/well) were cultured in quadruplicate in a volume of 200 μl in 96-well tissue culture plates for 96 hours with 1 μM CpG-oligodeoxynucleotides (ODN) DSP30 (Reference 14) (Midland Certified Reagent Company, Midland, Tex.) and 100 units/ml IL-2 (R&D Systems) in the presence or absence of drug. As controls, cells were treated with media without DSP30/IL-2. Cells were incubated with 1 μCi/well [methyl-^3H]-thymidine (specific activity 6.7 Ci/mmol, PerkinElmer, Waltham, Mass., USA) for 14-18 hours prior to harvesting onto glass-fiber filters using a semi-automated cell harvester. [^3H]-thymidine incorporation was measured as counts per minute (cpm) using a Tri-Carb 2100 timed-resolved liquid scintillation counter (PerkinElmer). The same protocol was utilized for proliferation assays with normal PBMCs, with the exception that growth was stimulated by treatment with 10 μg/ml Phytohemagglutinin-P (PHA, Sigma), 5 μg/ml concanavalin A (ConA, Sigma), 2 μg/ml pokeweed mitogen (PWM, Sigma), 25 ng/ml muromonab-CD3 (α-CD3, Ortho Pharmaceuticals, Raritan, N.J.), or 50 ng/ml phorbol myristate acetate (PMA, Sigma) plus 1 μg/ml ionomycin (iono, Sigma) for 96 hours. Proliferation is reported as percent of control (drug-treated cpm/control-treated cpm×100%).

CLL cells = assay: MTS cytotoxicity assay on primary CLL cells; type: cell-based; conditions: Homo sapiens, CLL cell, 72 h
Experimental: On the same day that heparin-anticoagulated venous blood was collected from participants, CLL cells were purified by methods described previously (Reference 11). Briefly, CLL cells were isolated from whole blood using the RosetteSep® B-cell enrichment cocktail (Stem Cell Technologies, Vancouver, BC, Canada) together with ficoll-Hypaque density gradient centrifugation. This method yielded CLL cell purity of greater than 95% CD5^+CD19^+ B-cells.
as §1, §2

CD19-positive B-cell = assay: Annexin V apoptosis of normal B-lymphocytes in PBMCs; type: cell-based, human; conditions: 72 hours
Experimental: (§3) PBMCs were cultured at 10^6 cells/ml in a 12-well tissue culture plate. Cells were treated for 72 hours with vehicle control or drug for 72 hours, then harvested as above for staining. PBMCs were resuspended at 2×10^5 cells/tube in 100 μl buffer (HBSS, 0.5% bovine serum albumin, 0.1% sodium azide) and incubated for 30 min with CD3-FITC or CD19-FITC antibodies according to the manufacturer's protocol (BD Biosciences). Cells were then incubated with PE-annexin V and 7-AAD (BD Biosciences) in annexin V binding buffer (BD Biosciences) for 15 minutes prior to analysis of apoptosis on the Guava EasyCyte™ Plus system.

CD3-positive T-cell = assay: Annexin V apoptosis of normal T-lymphocytes in PBMCs; type: cell-based, human; conditions: 72 hours
Experimental: as §3

[3] = system: CD34+ hematopoietic progenitor cells (erythroid colonies); assay: Colony formation assay, erythroid colonies; type: cell-based, human; conditions: Homo sapiens, 336 h, read-out: mean IC50 for normal erythroid colony formation
Experimental: (§4) CD34^+ hematopoietic progenitor cells were isolated from PBMCs from two healthy donors using the CD34 Microbead Kit (Miltenyi Biotec, Auburn, Calif.). 10^3 CD34^+-enriched cells were cultured in a 35 mm culture plate (1000 cells/plate) with or without LMP-420 or fludarabine in 1.1 ml Human Methylcellulose Complete Media (R&D Systems) according to the manufacturer's protocol. Plates were incubated for 14 days at 37° C. in humidified 5% CO2. Each treatment group was tested in triplicate. Colonies on plates were scored by two independent observers, blinded to the treatment groups, by microscopic evaluation under 10× and 20× power. Colonies were categorized as being of either erythroid or myeloid lineage.

[4] = system: CD34+ hematopoietic progenitor cells (myeloid colonies); assay: Colony formation assay, myeloid colonies; type: cell-based, human; conditions: Homo sapiens, 336 h, read-out: mean IC50 for normal myeloid colony formation
Experimental: as §4

[5] = read-out: IC50 for suppression of mitogen-induced proliferation, Con A, 96 hours
[6] = read-out: IC50 for suppression of mitogen-induced proliferation, PHA, 96 hours
[7] = read-out: IC50 for suppression of mitogen-induced proliferation, PMA/Iono, 96 hours
[8] = read-out: IC50 for suppression of mitogen-induced proliferation, PWM, 96 hours
[9] = read-out: IC50 for suppression of mitogen-induced proliferation, α-CD3, 96 hours
[10] = mean, PBMCs from healthy blood donors (n = 3-6)
[11] = Con A, 96 hours, read-out: IC50 for suppression of mitogen-induced proliferation
[12] = PWM, 96 hours, read-out: IC50 for suppression of mitogen-induced proliferation

| Molecule | Therapeutic Index (PBMC ED50/CLL ED50) (normal PBMCs [1]) | EC50 (normal PBMCs [1]) [µM] | IC50 (normal PBMCs [2]; [5]) [µM] | IC50 (normal PBMCs [2]; [6]) [µM] | IC50 (normal PBMCs [2]; [7]) [µM] | IC50 (normal PBMCs [2]; [8]) [µM] | IC50 (normal PBMCs [2]; [9]) [µM] | EC50 (normal PBMCs [1]; [10]) [µM] | IC50 (normal PBMCs [2]; [11]) [µM] | IC50 (normal PBMCs [2]; [12]) [µM] | also measured |
| --- | --- | --- | --- | --- | --- | --- | --- | --- | --- | --- | --- |
| 4-hydroperoxycyclophosphamide [Cyclophosphamide/4-HC] | 1.7 |  |  |  |  |  |  |  |  |  |  |
| Cn1c(CCCC(=O)O)nc2cc(N(CCCl)CCCl)ccc21 [Bendamustine, bendamustine] | 29.2 | 146 | 16 | 17 | 35 | 14 | 20 |  |  |  |  |
| O=C(O)CCCc1ccc(N(CCCl)CCCl)cc1 [Chlorambucil] | 22.6 | 67.7 | 12 | 11 | 7 | 7.5 | 12.5 |  |  |  |  |
| Nc1nc(Cl)nc2c1ncn2[C@H]1C[C@H](O)[C@@H](CO)O1 [Cladribine, cladribine] | 10 |  |  |  |  |  |  | 0.1 | 0.15 | 0.1 |  |
| Nc1nc(F)nc2c1ncn2[C@@H]1O[C@H](COP(=O)(O)O)[C@@H](O)[C@@H]1O [Fludarabine, fludarabine phosphate, reference compound] | 2.6 |  |  |  |  |  |  | 3.1 | < 3 | < 3 | EC50 (CLL cells; read-out: Median ED50 of fludarabine, 62 nM of LMP-420 added, 72 hours, 21 patient samples): 0.252 µM; EC50 (CLL cells; read-out: Median ED50 of fludarabine, 250 nM of LMP-420 added, 72 hours, 21 patient samples): 0.125 µM; EC50 (CLL cells; read-out: Median ED50 of fludarabine, no LMP-420 added, 72 hours, 21 patient samples): 0.978 µM; IC50 (normal PBMCs [2]; PHA, 96 hours, read-out: IC50 for suppression of mitogen-induced proliferation): < 3 µM; IC50 (normal PBMCs [2]; PMA/Iono, 96 hours, read-out: IC50 for suppression of mitogen-induced proliferation): 0.8 µM; IC50 (normal PBMCs [2]; α-CD3, 96 hours, read-out: IC50 for suppression of mitogen-induced proliferation): < 3 µM; apoptosis in normal B-cells (CD19-positive B-cell; 0.4 μM): caused significant apoptosis; average percent drug-specific apoptosis, B-cells (CD19-positive B-cell; 1 μM, n=3): 70%; apoptosis in normal T-cells (CD3-positive T-cell; 0.4 μM): caused significant apoptosis; average percent drug-specific apoptosis, T-cells (CD3-positive T-cell; 1 μM, n=3): 81%; IC50 [3]: 5 µM; IC50 [4]: 1 µM |

— patent US20110319360A1, “Method of including apoptosis/Cell death in leukemia cell using a purine nucleoside analogue” (U.S. Department of Veterans Affairs, priority 2010, published 2011)
